Test results as given in ChEMBL document CHEMBL4507281, “Data for DCP probe BI-4394” (2021).

Tests used:
[1] = biological target: T1, Phosphorylase b kinase regulatory subunit alpha, liver isoform (Homo sapiens) (UniProt P46019); conditions: Compound concentration 100.0 nM
T1 sequence (whole entry): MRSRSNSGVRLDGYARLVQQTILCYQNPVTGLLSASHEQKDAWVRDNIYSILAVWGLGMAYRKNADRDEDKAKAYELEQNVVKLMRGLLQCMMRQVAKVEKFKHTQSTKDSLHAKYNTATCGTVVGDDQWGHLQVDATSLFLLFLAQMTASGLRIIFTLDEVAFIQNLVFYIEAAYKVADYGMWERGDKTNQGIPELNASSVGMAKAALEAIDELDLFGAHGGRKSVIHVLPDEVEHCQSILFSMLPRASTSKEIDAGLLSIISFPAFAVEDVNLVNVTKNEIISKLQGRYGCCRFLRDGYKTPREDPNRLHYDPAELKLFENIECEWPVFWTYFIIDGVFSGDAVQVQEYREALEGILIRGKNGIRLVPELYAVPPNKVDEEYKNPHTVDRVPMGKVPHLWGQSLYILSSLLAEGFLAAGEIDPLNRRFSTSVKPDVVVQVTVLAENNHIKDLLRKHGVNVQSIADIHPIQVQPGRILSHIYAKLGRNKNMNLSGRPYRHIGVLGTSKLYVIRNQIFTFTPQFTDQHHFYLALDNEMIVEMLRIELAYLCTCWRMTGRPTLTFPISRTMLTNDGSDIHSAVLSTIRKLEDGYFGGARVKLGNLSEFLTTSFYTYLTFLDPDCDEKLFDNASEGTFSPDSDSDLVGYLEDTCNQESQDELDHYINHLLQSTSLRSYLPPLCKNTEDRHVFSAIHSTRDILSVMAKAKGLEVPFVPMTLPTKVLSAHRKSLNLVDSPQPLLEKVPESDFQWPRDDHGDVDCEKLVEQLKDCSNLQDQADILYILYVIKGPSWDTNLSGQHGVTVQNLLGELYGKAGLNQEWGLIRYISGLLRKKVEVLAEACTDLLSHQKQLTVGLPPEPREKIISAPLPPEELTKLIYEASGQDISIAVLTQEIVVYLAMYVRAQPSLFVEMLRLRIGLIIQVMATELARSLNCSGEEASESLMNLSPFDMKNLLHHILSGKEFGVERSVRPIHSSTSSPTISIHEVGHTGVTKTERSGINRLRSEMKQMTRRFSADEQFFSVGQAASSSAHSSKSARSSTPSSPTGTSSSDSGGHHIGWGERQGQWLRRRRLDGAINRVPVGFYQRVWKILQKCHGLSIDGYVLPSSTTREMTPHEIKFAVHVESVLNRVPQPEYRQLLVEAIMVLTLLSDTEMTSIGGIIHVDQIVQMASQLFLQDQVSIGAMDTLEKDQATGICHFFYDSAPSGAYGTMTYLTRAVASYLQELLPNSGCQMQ

[2] = biological target: Serine/threonine-protein kinase LATS1 (Homo sapiens) (UniProt O95835); conditions: Compound concentration 100.0 nM
[3] = tested on: Tyrosine-protein kinase ABL1 (Homo sapiens), P00519 [F317L]; conditions: Compound concentration 100.0 nM
[4] = biological target: Histamine H4 receptor (Homo sapiens) (UniProt Q9H3N8); conditions: Compound concentration 10.0 uM
[5] = biological target: Mitogen-activated protein kinase kinase kinase kinase 1 (Homo sapiens) (UniProt Q92918); conditions: Compound concentration 100.0 nM
[6] = biological target: Fibroblast growth factor receptor 3 (Homo sapiens) (UniProt P22607); conditions: Compound concentration 100.0 nM
[7] = biological target: Serine/threonine-protein kinase 24 (Homo sapiens) (UniProt Q9Y6E0); conditions: Compound concentration 100.0 nM
[8] = biological target: Ribosomal protein S6 kinase alpha-2 (Homo sapiens) (UniProt Q15349); conditions: Compound concentration 100.0 nM
[9] = biological target: Serine/threonine-protein kinase LATS2 (Homo sapiens) (UniProt Q9NRM7); conditions: Compound concentration 100.0 nM
[10] = biological target: Leucine-rich repeat serine/threonine-protein kinase 2 (Homo sapiens) (UniProt Q5S007); conditions: Compound concentration 100.0 nM
[11] = biological target: Serine/threonine-protein kinase PRP4 homolog (Homo sapiens) (UniProt Q13523); conditions: Compound concentration 100.0 nM
[12] = biological target: Serine/threonine-protein kinase PLK1 (Homo sapiens) (UniProt P53350); conditions: Compound concentration 100.0 nM
[13] = biological target: Discoidin domain-containing receptor 2 (Homo sapiens) (UniProt Q16832); conditions: Compound concentration 100.0 nM
[14] = biological target: Beta-3 adrenergic receptor (Homo sapiens) (UniProt P13945); conditions: Compound concentration 10.0 uM
[15] = biological target: RAC-alpha serine/threonine-protein kinase (Homo sapiens) (UniProt P31749); conditions: Compound concentration 100.0 nM
[16] = biological target: Receptor-type tyrosine-protein kinase FLT3 (Homo sapiens) (UniProt P36888); conditions: Compound concentration 100.0 nM
[17] = biological target: Ephrin type-A receptor 4 (Homo sapiens) (UniProt P54764); conditions: Compound concentration 100.0 nM
[18] = biological target: Serine/threonine-protein kinase B-raf (Homo sapiens) (UniProt P15056); conditions: Compound concentration 100.0 nM
[19] = biological target: Death-associated protein kinase 3 (Homo sapiens) (UniProt O43293); conditions: Compound concentration 100.0 nM
[20] = tested on: Receptor-type tyrosine-protein kinase FLT3 (Homo sapiens), P36888 [UNDEFINED MUTATION]; conditions: Compound concentration 100.0 nM
[21] = biological target: High affinity nerve growth factor receptor (Homo sapiens) (UniProt P04629); conditions: Compound concentration 100.0 nM
[22] = biological target: Epidermal growth factor receptor (Homo sapiens) (UniProt P00533); conditions: Compound concentration 100.0 nM
[23] = biological target: Kappa-type opioid receptor (Homo sapiens) (UniProt P41145); conditions: Compound concentration 10.0 uM
[24] = biological target: Cyclin-dependent kinase 4 (Homo sapiens) (UniProt P11802); conditions: Compound concentration 100.0 nM
[25] = biological target: Phosphatidylinositol 3-kinase C2 domain-containing subunit gamma (Homo sapiens) (UniProt O75747); conditions: Compound concentration 100.0 nM
[26] = biological target: Glycogen synthase kinase-3 beta (Homo sapiens) (UniProt P49841); conditions: Compound concentration 100.0 nM
[27] = biological target: Cyclin-dependent kinase 13 (Homo sapiens) (UniProt Q14004); conditions: Compound concentration 100.0 nM
[28] = biological target: Calcium/calmodulin-dependent protein kinase type IV (Homo sapiens) (UniProt Q16566); conditions: Compound concentration 100.0 nM

Serine/threonine-protein kinase LATS1 (Homo sapiens), sequence (O95835 whole entry): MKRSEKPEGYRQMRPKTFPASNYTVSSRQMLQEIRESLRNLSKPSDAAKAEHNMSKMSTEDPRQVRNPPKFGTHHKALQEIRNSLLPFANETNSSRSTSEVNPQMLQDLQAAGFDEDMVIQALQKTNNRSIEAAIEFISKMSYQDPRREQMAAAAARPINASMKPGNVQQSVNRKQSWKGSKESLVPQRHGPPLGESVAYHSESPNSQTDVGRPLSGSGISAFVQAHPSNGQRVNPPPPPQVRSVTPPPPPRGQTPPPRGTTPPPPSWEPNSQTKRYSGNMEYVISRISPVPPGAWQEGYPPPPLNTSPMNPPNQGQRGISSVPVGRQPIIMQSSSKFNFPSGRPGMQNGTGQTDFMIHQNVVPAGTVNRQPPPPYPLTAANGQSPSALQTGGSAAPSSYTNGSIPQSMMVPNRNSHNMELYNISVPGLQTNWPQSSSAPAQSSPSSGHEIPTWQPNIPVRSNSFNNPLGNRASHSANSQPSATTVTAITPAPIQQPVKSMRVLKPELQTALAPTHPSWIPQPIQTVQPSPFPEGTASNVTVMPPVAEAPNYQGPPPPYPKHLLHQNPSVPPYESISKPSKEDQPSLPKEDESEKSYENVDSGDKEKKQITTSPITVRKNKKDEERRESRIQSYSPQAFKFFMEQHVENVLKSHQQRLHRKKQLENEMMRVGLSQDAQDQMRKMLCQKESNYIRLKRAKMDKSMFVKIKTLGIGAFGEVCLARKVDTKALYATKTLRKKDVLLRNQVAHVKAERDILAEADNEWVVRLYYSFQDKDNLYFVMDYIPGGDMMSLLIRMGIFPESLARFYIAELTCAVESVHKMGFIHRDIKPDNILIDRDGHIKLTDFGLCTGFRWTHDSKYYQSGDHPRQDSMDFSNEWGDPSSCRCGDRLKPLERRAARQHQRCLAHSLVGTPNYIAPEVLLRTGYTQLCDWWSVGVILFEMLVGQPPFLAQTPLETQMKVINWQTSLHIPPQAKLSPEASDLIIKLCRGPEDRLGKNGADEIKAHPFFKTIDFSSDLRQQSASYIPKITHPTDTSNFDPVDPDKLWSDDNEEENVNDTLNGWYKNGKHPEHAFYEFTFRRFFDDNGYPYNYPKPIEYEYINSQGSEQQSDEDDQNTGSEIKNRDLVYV
Tyrosine-protein kinase ABL1 (Homo sapiens), P00519 [F317L], sequence (P00519 whole entry F317L): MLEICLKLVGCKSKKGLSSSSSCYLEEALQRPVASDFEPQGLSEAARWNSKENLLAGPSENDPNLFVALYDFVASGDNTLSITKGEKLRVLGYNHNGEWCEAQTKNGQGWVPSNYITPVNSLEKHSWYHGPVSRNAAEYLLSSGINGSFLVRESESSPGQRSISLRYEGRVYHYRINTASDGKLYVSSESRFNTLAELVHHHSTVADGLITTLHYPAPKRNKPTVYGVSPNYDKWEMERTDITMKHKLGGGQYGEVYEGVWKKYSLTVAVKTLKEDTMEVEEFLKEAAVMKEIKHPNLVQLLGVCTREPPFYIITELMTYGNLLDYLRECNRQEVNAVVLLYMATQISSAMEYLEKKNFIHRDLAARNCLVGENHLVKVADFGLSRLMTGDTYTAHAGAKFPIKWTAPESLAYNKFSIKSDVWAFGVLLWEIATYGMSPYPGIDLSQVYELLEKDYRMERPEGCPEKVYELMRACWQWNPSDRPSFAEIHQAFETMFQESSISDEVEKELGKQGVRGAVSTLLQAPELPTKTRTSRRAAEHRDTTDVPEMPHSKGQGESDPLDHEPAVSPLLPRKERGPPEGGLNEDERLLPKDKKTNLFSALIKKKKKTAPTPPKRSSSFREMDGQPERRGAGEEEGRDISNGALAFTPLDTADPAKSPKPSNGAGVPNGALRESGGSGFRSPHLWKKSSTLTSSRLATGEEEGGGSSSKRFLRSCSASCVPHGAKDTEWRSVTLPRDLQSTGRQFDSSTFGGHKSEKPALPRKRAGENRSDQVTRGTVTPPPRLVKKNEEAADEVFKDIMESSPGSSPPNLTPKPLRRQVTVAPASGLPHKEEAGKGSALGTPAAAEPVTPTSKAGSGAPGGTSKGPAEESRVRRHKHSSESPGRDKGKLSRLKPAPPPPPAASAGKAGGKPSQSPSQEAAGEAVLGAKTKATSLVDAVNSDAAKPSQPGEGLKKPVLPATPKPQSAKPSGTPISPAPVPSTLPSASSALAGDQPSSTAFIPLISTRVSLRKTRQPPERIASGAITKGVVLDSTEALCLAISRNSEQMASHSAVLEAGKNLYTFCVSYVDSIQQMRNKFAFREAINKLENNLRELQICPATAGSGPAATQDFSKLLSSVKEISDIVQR
Histamine H4 receptor (Homo sapiens), sequence (Q9H3N8 whole entry): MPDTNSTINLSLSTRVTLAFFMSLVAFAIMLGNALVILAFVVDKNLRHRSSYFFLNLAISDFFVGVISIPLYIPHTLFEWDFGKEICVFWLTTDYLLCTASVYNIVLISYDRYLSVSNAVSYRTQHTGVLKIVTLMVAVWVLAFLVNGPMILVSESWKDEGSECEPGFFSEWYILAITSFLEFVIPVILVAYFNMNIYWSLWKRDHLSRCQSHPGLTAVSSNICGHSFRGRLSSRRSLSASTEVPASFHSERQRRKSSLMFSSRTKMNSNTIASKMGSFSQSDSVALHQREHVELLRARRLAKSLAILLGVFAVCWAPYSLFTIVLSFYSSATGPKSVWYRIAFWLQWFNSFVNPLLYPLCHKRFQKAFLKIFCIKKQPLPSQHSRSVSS
Discoidin domain-containing receptor 2 (Homo sapiens), sequence (Q16832 whole entry, the tested form may be a part): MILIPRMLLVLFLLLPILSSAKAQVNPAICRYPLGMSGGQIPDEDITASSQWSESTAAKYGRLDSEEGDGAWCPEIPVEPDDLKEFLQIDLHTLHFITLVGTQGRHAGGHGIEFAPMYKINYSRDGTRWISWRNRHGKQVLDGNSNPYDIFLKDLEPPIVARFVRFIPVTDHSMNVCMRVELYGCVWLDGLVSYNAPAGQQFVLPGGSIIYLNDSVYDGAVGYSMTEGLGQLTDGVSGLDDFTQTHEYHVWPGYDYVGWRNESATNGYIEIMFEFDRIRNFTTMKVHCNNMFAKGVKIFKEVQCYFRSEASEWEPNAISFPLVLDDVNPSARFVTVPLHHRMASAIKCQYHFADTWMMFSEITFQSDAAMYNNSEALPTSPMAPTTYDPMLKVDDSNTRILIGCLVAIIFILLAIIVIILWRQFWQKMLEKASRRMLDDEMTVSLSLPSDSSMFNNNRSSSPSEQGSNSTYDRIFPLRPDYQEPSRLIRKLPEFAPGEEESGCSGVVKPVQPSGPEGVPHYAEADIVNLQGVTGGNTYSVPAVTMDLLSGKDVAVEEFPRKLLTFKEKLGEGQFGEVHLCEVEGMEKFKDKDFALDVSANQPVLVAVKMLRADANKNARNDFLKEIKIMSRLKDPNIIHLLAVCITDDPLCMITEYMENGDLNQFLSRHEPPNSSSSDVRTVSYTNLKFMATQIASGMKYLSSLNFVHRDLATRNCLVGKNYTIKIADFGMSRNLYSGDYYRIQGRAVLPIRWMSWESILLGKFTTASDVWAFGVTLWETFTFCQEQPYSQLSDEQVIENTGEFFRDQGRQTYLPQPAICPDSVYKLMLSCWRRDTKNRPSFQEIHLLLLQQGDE
Receptor-type tyrosine-protein kinase FLT3 (Homo sapiens), P36888 [UNDEFINED MUTATION], sequence (P36888 whole entry, looked up, change not shown): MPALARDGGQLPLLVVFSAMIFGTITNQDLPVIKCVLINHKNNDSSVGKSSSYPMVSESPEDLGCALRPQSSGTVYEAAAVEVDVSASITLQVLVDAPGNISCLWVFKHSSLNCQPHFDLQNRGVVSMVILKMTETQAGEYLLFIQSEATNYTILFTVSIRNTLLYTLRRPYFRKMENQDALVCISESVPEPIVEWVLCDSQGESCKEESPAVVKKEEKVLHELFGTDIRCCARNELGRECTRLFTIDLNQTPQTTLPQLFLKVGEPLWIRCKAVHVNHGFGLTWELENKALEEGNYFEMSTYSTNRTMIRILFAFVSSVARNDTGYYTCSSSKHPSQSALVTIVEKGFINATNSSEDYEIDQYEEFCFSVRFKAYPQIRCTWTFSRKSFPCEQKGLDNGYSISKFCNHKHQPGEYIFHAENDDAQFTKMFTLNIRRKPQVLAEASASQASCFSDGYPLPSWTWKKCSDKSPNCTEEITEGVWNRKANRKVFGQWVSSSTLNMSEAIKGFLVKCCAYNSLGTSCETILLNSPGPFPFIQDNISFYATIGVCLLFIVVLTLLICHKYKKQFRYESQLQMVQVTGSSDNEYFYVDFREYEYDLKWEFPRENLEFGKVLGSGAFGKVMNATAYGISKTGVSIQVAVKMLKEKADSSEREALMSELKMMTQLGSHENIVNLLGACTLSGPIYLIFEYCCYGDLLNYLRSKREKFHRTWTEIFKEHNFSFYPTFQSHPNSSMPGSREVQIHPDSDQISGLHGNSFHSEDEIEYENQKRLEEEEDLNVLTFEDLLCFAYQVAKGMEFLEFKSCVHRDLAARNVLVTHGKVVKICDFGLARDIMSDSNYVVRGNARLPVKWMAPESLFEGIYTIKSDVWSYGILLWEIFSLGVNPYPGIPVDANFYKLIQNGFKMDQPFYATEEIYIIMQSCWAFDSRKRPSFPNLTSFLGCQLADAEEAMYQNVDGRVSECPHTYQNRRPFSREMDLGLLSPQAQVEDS
Receptor-type tyrosine-protein kinase FLT3 (Homo sapiens), sequence (P36888 whole entry): as the sequence (P36888 whole entry, looked up, change not shown) above
Beta-3 adrenergic receptor (Homo sapiens), sequence (P13945 whole entry, looked up): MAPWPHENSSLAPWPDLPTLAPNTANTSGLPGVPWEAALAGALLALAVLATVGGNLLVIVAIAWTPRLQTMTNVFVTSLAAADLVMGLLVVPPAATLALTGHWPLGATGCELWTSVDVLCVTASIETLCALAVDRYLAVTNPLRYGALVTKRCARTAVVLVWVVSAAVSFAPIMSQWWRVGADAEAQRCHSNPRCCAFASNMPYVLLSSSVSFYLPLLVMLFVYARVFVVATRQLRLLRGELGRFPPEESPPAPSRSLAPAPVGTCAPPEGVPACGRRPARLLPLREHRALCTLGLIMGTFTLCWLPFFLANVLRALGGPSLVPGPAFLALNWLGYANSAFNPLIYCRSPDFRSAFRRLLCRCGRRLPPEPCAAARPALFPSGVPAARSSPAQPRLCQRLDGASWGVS

CCOC(=O)c1cc2cc(-c3cc(C(=O)NCc4ccc(C(=O)O)cc4)nn3C)ccc2[nH]1 [BI 4394]
inactive: residual activity [1] 100% | residual activity [2] 97% | residual activity [3] 100% | inhibition [4] -1.52% | residual activity [5] 100% | residual activity [6] 97% | residual activity [7] 92% | residual activity [8] 84% | residual activity [9] 74% | residual activity [10] 81% | residual activity [11] 89% | residual activity [12] 90% | residual activity [13] 76% | inhibition [14] -6.63% | residual activity [15] 100% | residual activity [16] 98% | residual activity [17] 96% | residual activity [18] 91% | residual activity [19] 98% | residual activity [20] 87% | residual activity [21] 89% | residual activity [22] 92% | inhibition [23] 27.2% | residual activity [24] 82% | residual activity [25] 100% | residual activity [26] 95% | residual activity [27] 83% | residual activity [28] 95%

Cn1nc(C(=O)NCc2ccc(C(=O)O)cc2)cc1-c1ccc2[nH]ccc2c1 [BI 4395]
inactive: residual activity [1] 86% | residual activity [2] 100% | residual activity [3] 62% | inhibition [4] -6.14% | residual activity [5] 97% | residual activity [6] 93% | residual activity [7] 97% | residual activity [8] 98% | residual activity [9] 100% | residual activity [10] 75% | residual activity [11] 100% | residual activity [12] 95% | residual activity [13] 75% | inhibition [14] 2.13% | residual activity [15] 100% | residual activity [16] 95% | residual activity [17] 100% | residual activity [18] 74% | residual activity [19] 86% | residual activity [20] 99% | residual activity [21] 74% | residual activity [22] 100% | inhibition [23] 16.8% | residual activity [24] 84% | residual activity [25] 100% | residual activity [26] 78% | residual activity [27] 72% | residual activity [28] 92%
